A short description of data set [1]: cytotoxicity: viability of mock-infected MT-4 host cells (MTT method). Format: cell-based. As to conditions: human, mt-4 cells, read-out: CD50: Cytotoxic concentration that causes death of cells by 50%. As for the experimental part:
The cytotoxicity of the compounds of the present invention was assessed in parallel with their antiviral activity. It was based on the viability of mock-infected host cells as determined by the MTT methods (se J. Virol. Methods, 20, 309 (1988)).
CD50 : Cytotoxic concentration that causes death of cells by 50%

Data set [2] has as its system HIV. The experiment in a line: inhibition of HIV-induced cytopathic effect in MT-4 cells (MTT method). The following applies: for EC50: Human immunodeficiency virus 1, MT4, HIV-infected MT-4 cells, 1000 CCID50, 4 or 5 day incubation at 37° C., MTT method, read-out: ED50: Effective concentration for the inhibition of the proliferation of HIV by 50%; for S.I.: Selectivity index (CD50/ED50): ratio CD50/ED50, MT-4 cells. The format is cell-based. As for the experimental part:
The anti-HIV assays were based on the inhibition of the virus-induced cytopathic effect in MT-4 cells as described in J. Virol. Methods, 16, 171 (1987). Briefly, MT-4 cells were suspended in culture medium at 2.5×10^5 cells/ml and infected with 1000 CCID50 (50% cell culture infective dose) of HIV. Immediately, after virus infection, 100 μl of the cell suspension was brought into each well of a flat-bottomedmicrotiter tray containing various concentrations of the test compounds. After a 4 or 5 day incubation at 37° C., the number of viable cells was determined by the 3-(4,5-dimethylthiazol-2-yl)-2,5-diphenyltetrazoliumbromide (MTT) method, as disclosed in J. Virol. Methods, 20, 309 (1988).
ED50 : Effective concentration for the inhibition of the
proliferation of HIV by 50%
A general note: Cytopathic effects are the visible damage that an infection or toxin causes in cultured cells.

Structures are written as SMILES. In brackets after ≈: the same amount, converted by molar mass.

As to `C=CCn1c(Cc2cc(C)cc(C)c2)c(CC)c(=O)[nH]c1=O` [Example 34, 1-allyl-5-ethyl-6-(3,5-dimethylbenzyl)-2,4-pyrimidinedione], the CC50 in data set [1] was 12.3 µg/mL (≈ 41.3 µM). Moreover, in data set [2], the EC50 was below 0.32 µg/mL and the “S.I.: Selectivity index (CD50/ED50)” value was above 38.
On the same counts, the results for `COC(=O)/C=C/Cn1c(C(=O)c2cc(C)cc(C)c2)c(C(C)C)c(=O)[nH]c1=O` [Example 54] are 30.1 µg/mL (≈ 78.2 µM), below 0.01 µg/mL and > 3,005.
In the case of `C/C=C/Cn1c(Sc2cc(C)cc(C)c2)c(CC)c(=O)[nH]c1=O` [Example 19], in data set [1], the CC50 is 8.74 µg/mL (≈ 26.4 µM). In addition, the “S.I.: Selectivity index (CD50/ED50)” value in data set [2] is reported as above 971.
Consider `C/C=C\Cn1c(Oc2cc(C)cc(C)c2)c(CC)c(=O)[nH]c1=O` [Example 70, 1-(cis-2-butenyl)-5-ethyl-6-(3,5-dimethylphenoxy)-2,4-pyrimidinedione], for which the CC50 in data set [1] amounted to 73.8 µg/mL (≈ 235 µM). Also, in data set [2], the EC50 was below 0.01 µg/mL and the “S.I.: Selectivity index (CD50/ED50)” value is on record as > 7,381.
On the same counts, the results for `Cc1cc(C)cc(Oc2c(C(C)C)c(=O)[nH]c(=O)n2C/C=C/c2ccccc2)c1` [Example 65] are 8.04 µg/mL (≈ 20.6 µM), below 0.009 µg/mL and above 893.
For the molecule `CC/C=C/Cn1c(Sc2cc(C)cc(C)c2)c(CC)c(=O)[nH]c1=O` [Example 2, 1-(trans-2-pentenyl)-5-ethyl-6-(3,5-dimethylphenylthio)-2,4-pyrimidinedione], the CC50 in data set [1] worked out at 8.73 µg/mL (≈ 25.3 µM). In data set [2], the EC50 was below 0.32 µg/mL and the “S.I.: Selectivity index (CD50/ED50)” value is on record as above 29.
The corresponding values for `CC/C=C/Cn1c(Sc2cc(C)cc(C)c2)c(C(C)C)c(=O)[nH]c1=O` [Example 28] are 5.79 µg/mL (≈ 16.2 µM), below 0.009 µg/mL and above 643.
On the same counts, the results for `CCc1c(Oc2cc(C)cc(C)c2)n(CC#Cc2ccccc2)c(=O)[nH]c1=O` [Example 61, 1-(3-phenyl-2-propynyl)-5-ethyl-6-(3,5-dimethylphenoxy)-2,4-pyrimidinedione] are 9.3 µg/mL (≈ 24.8 µM), below 0.009 µg/mL and > 1,033.
On the same counts, the results for `Cc1cc(C)cc(C(=O)c2c(C(C)C)c(=O)[nH]c(=O)n2CC#Cc2ccccc2)c1` [Example 56, 1-(3-phenyl-2-propynyl)-5-isopropyl-6-(3,5-dimethylbenzoyl)-2,4-pyrimidinedione] are 6.76 µg/mL (≈ 16.9 µM), below 0.009 µg/mL and above 75.1.
For `C/C=C/Cn1c(Cc2cc(C)cc(C)c2)c(CC)c(=O)[nH]c1=O` [Example 5, 1-(trans-2-butenyl)-5-ethyl-6-(3,5-dimethylbenzyl)-2,4-pyrimidinedione], the CC50 in data set [1] worked out at 48.6 µg/mL (≈ 156 µM). In addition, in data set [2], the EC50 is below 0.032 µg/mL and the “S.I.: Selectivity index (CD50/ED50)” value is > 1,518.
For `Cc1cc(C)cc(Sc2c(C(C)C)c(=O)[nH]c(=O)n2C/C=C/c2ccccc2)c1` [Example 29], the CC50 in data set [1] is 37.1 µg/mL (≈ 91.4 µM). Further, in data set [2], the EC50 is below 0.023 µg/mL and the “S.I.: Selectivity index (CD50/ED50)” value is recorded as > 1,615.
On the same counts, the results for `C#CCn1c(Oc2cc(C)cc(C)c2)c(CC)c(=O)[nH]c1=O` [Example 60, 1-propargyl-5-ethyl-6-(3,5-dimethylphenoxy)-2,4-pyrimidinedione] are 15.8 µg/mL (≈ 52.8 µM), below 0.62 µg/mL and above 25.
`C/C=C/Cn1c(Sc2cc(C)cc(C)c2)c(C(C)C)c(=O)[nH]c1=O` [Example 27]: the CC50 in data set [1] was determined as 6.66 µg/mL (≈ 19.3 µM). Also, in data set [2], the EC50 was below 0.009 µg/mL and the “S.I.: Selectivity index (CD50/ED50)” value is above 740.
The corresponding values for `CCc1c(Oc2cc(C)cc(C)c2)n(C/C=C/c2ccccc2)c(=O)[nH]c1=O` [Example 59, 1-(trans-cinnamyl)-5-ethyl-6-(3,5-dimethylphenoxy)-2,4-pyrimidinedione] are 38.6 µg/mL (≈ 102 µM), below 0.23 µg/mL and above 167.
